From patent US20190045784A1 (priority 2016, published 2019)
Where two headings read alike, the source gives them in different places.

What was measured:
Type in all cases: cell-based
Details in all cases: 7 days after inoculation
Alternaria solani = assay: Activity against early blight caused by Alternaria solani (Alteso), microtiter test
Phytophthora infestans = tested on: Phytophthora infestans
Botrytis cinerea = assay: Activity against the grey mold Botrytis cinerea in the microtiter plate test (Botrci)
Septoria tritici = assay: Activity against leaf blotch on wheat caused by Septoria tritici (Septtr), microtiter test

SMILES: Cn1cc(C(=O)Nc2ccccc2-c2cc(F)c(F)c(F)c2)c(C(F)F)n1 [Fluxapyroxad, fluxapyroxad]
- Observed efficacy (Alternaria solani; 0.00025 ppm): 7%
- Observed efficacy (Alternaria solani; 0.004 ppm): 31%
- Observed efficacy (Alternaria solani; 0.016 ppm): 69%
- Observed efficacy (Phytophthora infestans; 0.016 ppm): 2%
- Observed efficacy (Phytophthora infestans; 0.063 ppm): 18%
- Observed efficacy (Botrytis cinerea; 0.016 ppm): 0%
- Observed efficacy (Septoria tritici; 0.000063 ppm): 1%
- Observed efficacy (Septoria tritici; 0.001 ppm): 7%
- Observed efficacy (Septoria tritici; 0.004 ppm): 9%
- Observed efficacy (Septoria tritici; 0.016 ppm): 17%

SMILES: Cc1ccc(COc2ncc(F)c(N)n2)cc1 [No. I-5, 5-fluoro-2-(p-tolylmethoxy)pyrimidin-4-amine]
- Observed efficacy (Phytophthora infestans; 16 ppm): 14%
- Observed efficacy (Botrytis cinerea; 16 ppm): 24%

SMILES: Nc1nc(OCc2ccc(F)cc2)ncc1F [No. I-4, 5-fluoro-2-(4-fluorophenylmethoxy)pyrimidin-4 amine]
- Observed efficacy (Alternaria solani; 1 ppm): 0%

SMILES: Cn1c(=O)c2sc3c(=O)n(C)c(=O)c3sc2c1=O [No. I-2, 2,6-dimethyl-1H,5H-[1,4]dithiino[2,3-c:5,6-c′]dipyrrole-1,3,5,7(2H,6H)-tetraone]
- Observed efficacy (Alternaria solani; 0.25 ppm): 14%
- Observed efficacy (Phytophthora infestans; 0.25 ppm): 0%
- Observed efficacy (Phytophthora infestans; 1 ppm): 28%
- Observed efficacy (Septoria tritici; 0.063 ppm): 35%
